Read-outs that look alike come from different tables or passages of the source.
Legend:
[1] = biological target: T1, AEA-DA lipid probe targets in Neuro2a cells (Mus musculus, UniProt Q8VCB1); conditions: for SILAC ratio, TMEM48 (Q8VCB1): Neuro2a cells, AEA-DA probe
T1 sequence (Q8VCB1 1-673): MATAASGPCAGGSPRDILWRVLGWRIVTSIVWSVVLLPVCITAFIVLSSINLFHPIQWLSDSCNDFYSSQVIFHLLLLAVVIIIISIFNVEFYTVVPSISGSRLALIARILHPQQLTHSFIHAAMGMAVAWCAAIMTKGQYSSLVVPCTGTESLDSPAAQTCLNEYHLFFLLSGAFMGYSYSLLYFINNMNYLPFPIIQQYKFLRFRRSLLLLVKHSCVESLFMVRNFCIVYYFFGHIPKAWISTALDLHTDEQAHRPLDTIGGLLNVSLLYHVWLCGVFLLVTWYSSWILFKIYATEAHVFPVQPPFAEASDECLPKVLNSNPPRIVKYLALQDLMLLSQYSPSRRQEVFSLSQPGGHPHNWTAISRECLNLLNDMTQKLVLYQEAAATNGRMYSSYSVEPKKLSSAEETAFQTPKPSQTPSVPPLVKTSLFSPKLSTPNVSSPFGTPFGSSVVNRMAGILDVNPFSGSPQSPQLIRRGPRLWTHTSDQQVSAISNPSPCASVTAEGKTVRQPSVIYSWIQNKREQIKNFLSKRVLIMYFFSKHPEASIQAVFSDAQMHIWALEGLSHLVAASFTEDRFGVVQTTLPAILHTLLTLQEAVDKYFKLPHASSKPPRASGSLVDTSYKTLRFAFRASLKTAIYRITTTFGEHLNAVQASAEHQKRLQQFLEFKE

[2] = biological target: T2, AEA-DA lipid probe targets in Neuro2a cells (Mus musculus, UniProt P32037)
T2 sequence (P32037 1-493): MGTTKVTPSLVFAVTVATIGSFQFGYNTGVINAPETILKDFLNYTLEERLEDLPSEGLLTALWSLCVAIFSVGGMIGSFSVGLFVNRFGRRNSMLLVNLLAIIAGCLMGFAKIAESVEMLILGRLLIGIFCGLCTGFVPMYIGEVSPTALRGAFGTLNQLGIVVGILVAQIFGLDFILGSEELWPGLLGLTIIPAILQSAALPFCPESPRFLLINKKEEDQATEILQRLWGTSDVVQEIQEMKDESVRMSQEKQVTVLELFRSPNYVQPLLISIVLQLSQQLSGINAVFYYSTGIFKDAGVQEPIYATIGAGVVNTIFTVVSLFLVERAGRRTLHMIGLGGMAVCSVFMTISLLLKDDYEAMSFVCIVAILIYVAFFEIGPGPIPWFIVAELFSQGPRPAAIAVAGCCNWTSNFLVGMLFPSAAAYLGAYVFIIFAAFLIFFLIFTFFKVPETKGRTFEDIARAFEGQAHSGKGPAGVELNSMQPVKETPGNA

[3] = biological target: AEA-DA lipid probe targets in Neuro2a cells (Mus musculus, UniProt P20152)
Sequence of AEA-DA lipid probe targets in Neuro2a cells (Mus musculus, UniProt P20152) (P20152 whole entry): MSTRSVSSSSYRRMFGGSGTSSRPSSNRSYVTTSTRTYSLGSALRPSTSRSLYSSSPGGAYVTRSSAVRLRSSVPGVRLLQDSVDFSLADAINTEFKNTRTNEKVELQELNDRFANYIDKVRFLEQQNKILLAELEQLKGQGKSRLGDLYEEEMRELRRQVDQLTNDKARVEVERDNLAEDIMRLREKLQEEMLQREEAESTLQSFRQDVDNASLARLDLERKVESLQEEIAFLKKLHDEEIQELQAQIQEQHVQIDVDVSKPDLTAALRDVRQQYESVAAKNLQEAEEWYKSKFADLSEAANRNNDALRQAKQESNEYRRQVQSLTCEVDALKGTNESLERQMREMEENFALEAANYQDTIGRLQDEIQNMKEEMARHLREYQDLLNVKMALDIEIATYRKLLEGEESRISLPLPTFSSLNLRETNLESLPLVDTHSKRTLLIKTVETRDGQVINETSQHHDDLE

[4] = biological target: AEA-DA lipid probe targets in Neuro2a cells (Mus musculus, UniProt Q62261)
[5] = biological target: T3, AEA-DA lipid probe targets in Neuro2a cells (Mus musculus, UniProt P17439)
T3 sequence (P17439 20-515): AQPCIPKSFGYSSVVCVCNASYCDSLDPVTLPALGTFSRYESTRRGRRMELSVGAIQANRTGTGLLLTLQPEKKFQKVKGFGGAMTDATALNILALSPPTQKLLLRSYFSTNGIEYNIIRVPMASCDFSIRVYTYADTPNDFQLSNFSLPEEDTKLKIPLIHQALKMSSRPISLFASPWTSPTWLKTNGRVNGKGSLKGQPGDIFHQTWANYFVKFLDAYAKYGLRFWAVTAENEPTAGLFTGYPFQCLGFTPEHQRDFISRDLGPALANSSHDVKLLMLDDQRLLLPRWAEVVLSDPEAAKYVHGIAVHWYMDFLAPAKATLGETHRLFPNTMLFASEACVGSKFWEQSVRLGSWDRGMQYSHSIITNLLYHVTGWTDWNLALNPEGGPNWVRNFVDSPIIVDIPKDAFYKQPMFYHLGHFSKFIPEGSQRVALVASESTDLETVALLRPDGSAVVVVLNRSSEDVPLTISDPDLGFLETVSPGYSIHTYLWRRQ

[6] = biological target: T4, AEA-DA lipid probe targets in Neuro2a cells (Mus musculus, UniProt Q3TZX3)
T4 sequence (Q3TZX3 1-320): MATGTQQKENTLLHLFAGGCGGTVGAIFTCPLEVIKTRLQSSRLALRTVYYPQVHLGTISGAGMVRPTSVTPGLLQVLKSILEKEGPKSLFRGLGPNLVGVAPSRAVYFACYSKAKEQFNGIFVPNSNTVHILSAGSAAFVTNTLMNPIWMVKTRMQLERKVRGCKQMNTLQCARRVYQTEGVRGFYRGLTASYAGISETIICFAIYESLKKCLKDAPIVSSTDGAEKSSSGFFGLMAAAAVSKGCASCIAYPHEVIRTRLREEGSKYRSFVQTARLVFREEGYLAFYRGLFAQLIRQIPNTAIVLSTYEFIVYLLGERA

[7] = biological target: AEA-DA lipid probe targets in Neuro2a cells (Mus musculus, UniProt Q8BG32)
Sequence of AEA-DA lipid probe targets in Neuro2a cells (Mus musculus, UniProt Q8BG32) (Q8BG32 whole entry): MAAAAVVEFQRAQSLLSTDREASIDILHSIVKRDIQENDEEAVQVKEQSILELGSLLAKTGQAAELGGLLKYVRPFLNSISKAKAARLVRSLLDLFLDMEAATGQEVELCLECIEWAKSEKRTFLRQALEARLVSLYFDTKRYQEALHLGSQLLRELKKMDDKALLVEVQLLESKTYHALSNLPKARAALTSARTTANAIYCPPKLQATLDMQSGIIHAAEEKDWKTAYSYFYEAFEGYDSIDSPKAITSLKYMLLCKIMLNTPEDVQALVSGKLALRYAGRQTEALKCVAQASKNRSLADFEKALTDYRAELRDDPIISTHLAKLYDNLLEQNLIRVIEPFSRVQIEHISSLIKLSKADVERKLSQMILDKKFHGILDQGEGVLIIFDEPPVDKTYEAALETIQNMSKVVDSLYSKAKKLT

[8] = biological target: AEA-DA lipid probe targets in Neuro2a cells (Mus musculus, UniProt Q8VDD5)
Sequence of AEA-DA lipid probe targets in Neuro2a cells (Mus musculus, UniProt Q8VDD5) (Q8VDD5 whole entry): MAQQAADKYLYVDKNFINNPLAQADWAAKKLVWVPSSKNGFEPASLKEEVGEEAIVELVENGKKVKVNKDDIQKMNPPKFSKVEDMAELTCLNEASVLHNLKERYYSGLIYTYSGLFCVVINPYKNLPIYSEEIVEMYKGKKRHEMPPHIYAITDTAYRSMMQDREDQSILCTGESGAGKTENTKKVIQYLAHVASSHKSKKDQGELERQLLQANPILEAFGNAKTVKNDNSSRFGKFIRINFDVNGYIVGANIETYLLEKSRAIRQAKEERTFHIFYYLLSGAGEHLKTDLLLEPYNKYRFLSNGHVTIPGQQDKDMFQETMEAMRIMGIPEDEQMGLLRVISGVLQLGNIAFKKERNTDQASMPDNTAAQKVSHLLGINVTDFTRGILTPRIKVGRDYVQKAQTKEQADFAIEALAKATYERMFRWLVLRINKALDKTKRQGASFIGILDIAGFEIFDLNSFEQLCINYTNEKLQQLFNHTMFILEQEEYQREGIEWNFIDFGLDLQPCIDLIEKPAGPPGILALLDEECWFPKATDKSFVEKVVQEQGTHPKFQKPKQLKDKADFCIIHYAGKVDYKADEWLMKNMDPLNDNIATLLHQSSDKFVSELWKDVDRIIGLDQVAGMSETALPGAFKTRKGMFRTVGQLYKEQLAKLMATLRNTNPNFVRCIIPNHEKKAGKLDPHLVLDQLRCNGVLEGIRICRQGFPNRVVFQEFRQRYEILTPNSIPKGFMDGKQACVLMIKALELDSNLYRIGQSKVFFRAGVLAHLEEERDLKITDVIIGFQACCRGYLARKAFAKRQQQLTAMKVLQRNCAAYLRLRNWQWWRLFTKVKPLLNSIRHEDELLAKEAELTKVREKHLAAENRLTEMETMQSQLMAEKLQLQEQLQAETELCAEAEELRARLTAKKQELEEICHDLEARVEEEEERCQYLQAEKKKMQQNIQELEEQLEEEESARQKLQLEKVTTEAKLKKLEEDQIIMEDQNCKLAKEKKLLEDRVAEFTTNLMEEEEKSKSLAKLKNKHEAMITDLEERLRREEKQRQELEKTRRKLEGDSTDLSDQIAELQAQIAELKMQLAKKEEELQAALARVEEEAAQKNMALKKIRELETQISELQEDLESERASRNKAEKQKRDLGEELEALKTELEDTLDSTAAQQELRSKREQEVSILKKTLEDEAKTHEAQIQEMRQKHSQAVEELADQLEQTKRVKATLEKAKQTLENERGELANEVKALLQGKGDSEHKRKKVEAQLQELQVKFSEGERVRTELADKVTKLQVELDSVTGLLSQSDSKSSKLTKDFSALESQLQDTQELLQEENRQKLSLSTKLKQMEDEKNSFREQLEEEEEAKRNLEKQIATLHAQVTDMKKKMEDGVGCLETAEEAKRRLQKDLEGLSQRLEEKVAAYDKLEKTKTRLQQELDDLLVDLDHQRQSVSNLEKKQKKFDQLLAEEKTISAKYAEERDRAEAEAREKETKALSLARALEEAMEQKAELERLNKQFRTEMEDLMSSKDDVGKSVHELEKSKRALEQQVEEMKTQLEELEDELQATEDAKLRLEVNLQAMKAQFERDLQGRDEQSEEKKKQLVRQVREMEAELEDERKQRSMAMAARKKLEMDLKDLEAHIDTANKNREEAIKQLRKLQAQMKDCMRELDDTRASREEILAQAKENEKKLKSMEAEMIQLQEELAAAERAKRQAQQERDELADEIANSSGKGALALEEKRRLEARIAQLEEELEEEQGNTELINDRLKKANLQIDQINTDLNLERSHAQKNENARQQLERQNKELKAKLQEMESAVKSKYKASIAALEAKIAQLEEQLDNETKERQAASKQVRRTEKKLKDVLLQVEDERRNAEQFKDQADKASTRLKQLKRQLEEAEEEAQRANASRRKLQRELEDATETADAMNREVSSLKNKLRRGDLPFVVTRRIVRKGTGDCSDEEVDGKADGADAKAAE

[9] = biological target: T5, AEA-DA lipid probe targets in Neuro2a cells (Mus musculus, UniProt Q9D6K9)
T5 sequence (Q9D6K9 1-414): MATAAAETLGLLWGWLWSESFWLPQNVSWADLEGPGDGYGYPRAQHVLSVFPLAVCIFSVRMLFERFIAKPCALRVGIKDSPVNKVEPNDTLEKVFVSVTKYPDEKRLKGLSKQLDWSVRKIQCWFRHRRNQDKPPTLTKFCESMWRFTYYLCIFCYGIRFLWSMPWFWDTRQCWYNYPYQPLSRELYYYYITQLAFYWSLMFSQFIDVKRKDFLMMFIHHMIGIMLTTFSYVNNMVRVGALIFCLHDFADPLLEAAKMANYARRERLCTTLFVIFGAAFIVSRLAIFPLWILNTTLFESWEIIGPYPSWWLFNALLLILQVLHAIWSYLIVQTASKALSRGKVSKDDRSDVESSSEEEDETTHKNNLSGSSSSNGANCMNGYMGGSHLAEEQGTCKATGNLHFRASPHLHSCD

Structure (SMILES): CCCCC/C=C\C/C=C\C/C=C\C/C=C\CCCC(=O)NCCO [AEA, anandamide, reference compound]
- SILAC ratio, TMEM48 (Q8VCB1) ([1]; competitor 200 μM): 1.9
- SILAC ratio, Tmem48 ([1]; competitor 200 μM): 1.9
- SILAC ratio, Slc2a3 ([2]; competitor 200 μM): 1.0
- SILAC ratio Vim ([3]; competitor 200 μM): 0.9
- SILAC ratio Sptbn1 ([4]; competitor 200 μM): 1.1
- SILAC ratio Gba ([5]; competitor 200 μM): 1.5
- SILAC ratio Slc25a33 ([6]; competitor 200 μM): 1.3
- SILAC ratio Psmd11 ([7]; competitor 200 μM): 1.2
- SILAC ratio Myh9 ([8]; competitor 200 μM): 1.1
- SILAC ratio, Cers5 ([9]; competitor 200 μM): 2.1

Structure (SMILES): O=C(/C=C/c1cccnc1)NCCCCC1CCN(C(=O)c2ccccc2)CC1 [FK-866, reference compound]
- SILAC ratio, TMEM48 (Q8VCB1) ([1]; competitor 25 μM): 1.2
- SILAC ratio, Tmem48 ([1]; competitor 25 μM): 1.2
- SILAC ratio, Slc2a3 ([2]; competitor 25 μM): 1.1
- SILAC ratio Vim ([3]; competitor 25 μM): 1.2
- SILAC ratio Sptbn1 ([4]; competitor 25 μM): 1.3
- SILAC ratio Gba ([5]; competitor 25 μM): 1.0
- SILAC ratio Slc25a33 ([6]; competitor 25 μM): 1.2
- SILAC ratio Psmd11 ([7]; competitor 25 μM): 1.3
- SILAC ratio Myh9 ([8]; competitor 25 μM): 1.2
- SILAC ratio, Cers5 ([9]; competitor 25 μM): 1.1

Structure (SMILES): CN1CCN(C(=O)c2c(-c3ccccc3)c3cc([N+](=O)[O-])ccc3n2C)CC1 [KML110, (1-Methyl-5-nitro-3-phenyl-1H-indol-2-yl)(4-methylpiperazin-1-yl)methanone]
- SILAC ratio, Tmem48 ([1]; competitor 25 μM): 1.6
- SILAC ratio, Slc2a3 ([2]; competitor 25 μM): 1.2
- SILAC ratio Vim ([3]; competitor 25 μM): 1.2
- SILAC ratio Sptbn1 ([4]; competitor 25 μM): 1.2
- SILAC ratio Gba ([5]; competitor 25 μM): 2.4
- SILAC ratio Slc25a33 ([6]; competitor 25 μM): 1.4
- SILAC ratio Psmd11 ([7]; competitor 25 μM): 1.3
- SILAC ratio Myh9 ([8]; competitor 25 μM): 1.7
- SILAC ratio, Cers5 ([9]; competitor 25 μM): 1.6

Structure (SMILES): CN1CCN(C(=O)c2[nH]c3ccc([N+](=O)[O-])cc3c2-c2ccccc2)CC1 [MJN228, (4-Methylpiperazin-1-yl)(5-nitro-3-phenyl-1H-indol-2-yl)methanone]
- SILAC ratio, TMEM48 (Q8VCB1) ([1]; competitor 25 μM): 1.5
- SILAC ratio, Tmem48 ([1]; competitor 10 μM): 1.3
- SILAC ratio, Tmem48 ([1]; competitor 25 μM): 1.5
- SILAC ratio, Tmem48 ([1]; competitor 50 μM): 1.9
- SILAC ratio, Tmem48 ([1]; competitor 100 μM): 2.8
- SILAC ratio, Slc2a3 ([2]; competitor 10 μM): 1.2
- SILAC ratio, Slc2a3 ([2]; competitor 25 μM): 1.4
- SILAC ratio, Slc2a3 ([2]; competitor 50 μM): 1.2
- SILAC ratio, Slc2a3 ([2]; competitor 100 μM): 1.2
- SILAC ratio Vim ([3]; competitor 10 μM): 1.2
- SILAC ratio Vim ([3]; competitor 25 μM): 1.2
- SILAC ratio Vim ([3]; competitor 50 μM): 0.9
- SILAC ratio Vim ([3]; competitor 100 μM): 1.0
- SILAC ratio Sptbn1 ([4]; competitor 10 μM): 1.0
- SILAC ratio Sptbn1 ([4]; competitor 25 μM): 1.2
- SILAC ratio Sptbn1 ([4]; competitor 100 μM): 1.3
- SILAC ratio Gba ([5]; competitor 10 μM): 2.2
- SILAC ratio Slc25a33 ([6]; competitor 10 μM): 1.2
- SILAC ratio Slc25a33 ([6]; competitor 25 μM): 1.2
- SILAC ratio Slc25a33 ([6]; competitor 50 μM): 0.9
- SILAC ratio Slc25a33 ([6]; competitor 100 μM): 0.6
- SILAC ratio Psmd11 ([7]; competitor 25 μM): 1.3
- SILAC ratio Myh9 ([8]; competitor 10 μM): 1.2
- SILAC ratio Myh9 ([8]; competitor 25 μM): 1.3
- SILAC ratio Myh9 ([8]; competitor 50 μM): 1.2
- SILAC ratio Myh9 ([8]; competitor 100 μM): 1.6
- SILAC ratio, Cers5 ([9]; competitor 10 μM): 1.2
- SILAC ratio, Cers5 ([9]; competitor 25 μM): 1.8
- SILAC ratio, Cers5 ([9]; competitor 50 μM): 2.1
- SILAC ratio, Cers5 ([9]; competitor 100 μM): 3.0

Structure (SMILES): C=CCN(C)CCCCCCOc1ccc(C(=O)c2ccc(Br)cc2)c(F)c1 [Ro 48-8071, reference compound]
- SILAC ratio, TMEM48 (Q8VCB1) ([1]; competitor 25 μM): 1.1
- SILAC ratio, Tmem48 ([1]; competitor 25 μM): 1.1
- SILAC ratio, Slc2a3 ([2]; competitor 25 μM): 1.0
- SILAC ratio Vim ([3]; competitor 25 μM): 0.8
- SILAC ratio Sptbn1 ([4]; competitor 25 μM): 1.0
- SILAC ratio Gba ([5]; competitor 25 μM): 0.7
- SILAC ratio Slc25a33 ([6]; competitor 25 μM): 1.0
- SILAC ratio Psmd11 ([7]; competitor 25 μM): 0.9
- SILAC ratio Myh9 ([8]; competitor 25 μM): 1.0
- SILAC ratio, Cers5 ([9]; competitor 25 μM): 1.3
